The values below come from ChEMBL document CHEMBL4304811, “Development of a Water-Soluble Indolylmaleimide Derivative IM-93 Showing Dual Inhibition of Ferroptosis and NETosis” (ACS Med Chem Lett, 2019).

The test system of one data set is HL-60. Nature of the data set: Cytoprotection against human HL60 cells assessed as inhibition of H2O2-induced cell death pretreated for 1 hr followed by H2O2 stimulation measured after 3 hrs by p-iodonitrotetrazolium violet dye based LDH assay. The class given is functional.
Data set [1] has as its system THP-1. Briefly: Inhibition of Pseudomonas aeruginosa-induced pyroptosis in human THP1 cells at 10 uM preincubated for 1 hr followed by bacterial infection and measured after 2 hrs by INT dye based LDH assay. It is filed as functional, cell-based.
Data set [2] concerns THP-1. Briefly: Inhibition of Staphylococcus aureus-induced pyroptosis in human THP1 cells at 10 uM preincubated for 1 hr followed by bacterial infection and measured after 2 hrs by INT dye based LDH assay. It is filed as functional, cell-based.
The test system of data set [3] is Neutrophil. Nature of the data set: Inhibition of PMA-induced superoxide production in C57BL6 mouse neutrophils at 100 uM preincubated for 30 mins followed by PMA stimulation and measured after 30 mins by luminol-lucignenin based luminescence assay. The class given is functional, cell-based.
The subject of data set [4] is NIH3T3. Nature of the data set: Inhibition of TBHP-induced ferroptosis in mouse NIH/3T3 cells after 12 hrs by WST-8 assay. It is filed as functional, cell-based. The following applies: NIH3T3, 12 h.
The subject of data set [5] is Neutrophil. Nature of the data set: Inhibition of PMA-induced NETosis in human neutrophils assessed as effect on lipid peroxidation at 100 uM preincubated for 30 mins followed by PMA stimulation measured after 30 mins by C11-Bodipy fluorescent dye based flow cytometry. The class given is functional, cell-based. Background: A flow cytometer gives signals particle by particle.

In data set [6] the test system is Neutrophil. Nature of the data set: Inhibition of PMA-induced NETosis in human neutrophils at 100 uM preincubated for 30 mins followed by PMA stimulation and measured after 3 hrs by Hoechst […] staining based fluorescence microscopic analysis. The class given is functional, cell-based.
Data set [7] concerns NIH3T3. Nature of the data set: Inhibition of erastin-induced ferroptosis in mouse NIH/3T3 cells after 24 hrs by WST-8 assay. It is filed as functional, cell-based. As to conditions: NIH3T3, 24 h.
Data set [8] can be described thus: Aqueous solubility of compound in citrate-phosphate buffer at pH 7.0 after 30 mins by HPLC analysis. The class given is physicochemical.
Data set [9] deals with Neutrophil. Nature of the data set: Inhibition of PMA-induced NETosis in human neutrophils at 25 uM preincubated for 30 mins followed by PMA stimulation and measured after 3 hrs by Hoechst […] staining based fluorescence microscopic analysis. It is filed as functional, cell-based.
In data set [10] the test system is Neutrophil. Briefly: Inhibition of PMA-induced NETosis in human neutrophils assessed as inhibition of ROS production at 25 uM pretreated for 25 mins followed by PMA stimulation and measured after 20 mins by DCFH-DA based flow cytometry. The class given is functional, cell-based.
Data set [11] has as its system Neutrophil. Nature of the data set: Inhibition of PMA-induced NETosis in human neutrophils assessed as reduction in lipid peroxidation at 2.5 uM preincubated for 30 mins followed by PMA stimulation measured after 30 mins by C11-Bodipy fluorescent dye based flow cytometry. The class given is functional, cell-based.
The subject of data set [12] is Neutrophil. Briefly: Inhibition of PMA-induced superoxide production in C57BL6 mouse neutrophils at 2.5 uM preincubated for 30 mins followed by PMA stimulation and measured after 30 mins by luminol-lucignenin based luminescence assay. It is filed as functional, cell-based.
In data set [13] the test system is Neutrophil. Briefly: Inhibition of PMA-induced NETosis in human neutrophils at 2.5 uM preincubated for 30 mins followed by PMA stimulation and measured after 3 hrs by Hoechst […] staining based fluorescence microscopic analysis. The class given is functional, cell-based.
Data set [14] concerns Neutrophil. Briefly: Inhibition of PMA-induced NETosis in human neutrophils at […] preincubated for 30 mins followed by PMA stimulation and measured after 3.5 hrs by Hoechst […] staining based fluorescence microscopic analysis. The class given is functional, cell-based.

Calls of active or inactive are those of the source. The rule behind the calls is not given here. A value given as a limit tells only on which side of the number the result lay.

A word on the IC50: it is the concentration that gives 50% inhibition. As for `CC(C)NC1=C(c2cn(C)c3ccccc23)C(=O)N(C)C1=O`, the IC50 in the data set with HL-60 worked out at 480 nM.

Consider `CCCNC(=O)[C@H]1O[C@@H]1C(=O)N[C@H](C(=O)N1CCC[C@H]1C(=O)OC)[C@@H](C)CC`, for which the inhibition entry with THP-1 [1] and in the data set with THP-1 [2] was “Active” throughout.

Take `CN(C)C1=C(c2cn(C)c3ccccc23)C(=O)N(C)C1=O`: in the data set on HL-60, the IC50 was found to be 4300 nM.

As to `C[C@@H](NC1=C(c2cn(C)c3ccccc23)C(=O)N(C)C1=O)c1ccccc1`, in the data set on HL-60, the concentration for half-maximal inhibition (IC50) amounted to 390 nM.

Take `CCCCCN1C(=O)C(NCCC)=C(c2cn(C)c3ccccc23)C1=O`: in the data set with HL-60, the IC50 was determined as 320 nM.

On to `CN1C(=O)C(NCc2cccnc2)=C(c2cn(C)c3ccccc23)C1=O`, for which the IC50 in the data set with HL-60 amounted to 1300 nM.

For the compound `CN1C(=O)C(NCc2ccccn2)=C(c2cn(C)c3ccccc23)C1=O`, in the data set on HL-60, the half-inhibitory concentration (IC50) was 1300 nM.

In the case of `CN1C(=O)C(NCCc2ccccc2)=C(c2cn(C)c3ccccc23)C1=O`, in the data set with HL-60, the IC50 came out at 650 nM.

For `CN1C(=O)C(NC2CCCC2)=C(c2cn(C)c3ccccc23)C1=O`, the IC50 in the data set with HL-60 turned out to be 300 nM.

Regarding `CN1C(=O)C(NC2CC2)=C(c2cn(C)c3ccccc23)C1=O`, the IC50 in the data set on HL-60 was determined as 3800 nM.

For the compound `CN1C(=O)C(NCc2ccc(Cl)cc2)=C(c2cn(C)c3ccccc23)C1=O`, in the data set on HL-60, the IC50 is 310 nM.

As for `CCCCN1C(=O)C(NCCC)=C(c2cn(C)c3ccccc23)C1=O`, the IC50 in the data set on HL-60 came out at 350 nM.

Consider `CC(=O)N(O)CCCCCNC(=O)CCC(=O)N(O)CCCCCNC(=O)CCC(=O)N(O)CCCCCN` [DEFEROXAMINE], for which the inhibition entry in the data set on Neutrophil [3] and in the data set with Neutrophil [6] was “inactive” throughout. The values for the concentration for half-maximal inhibition (IC50) in the data set with NIH3T3 [4] and with NIH3T3 [7] were 9000 nM and 4900 nM, respectively. Further, in the data set with Neutrophil [5], the outcome was inactive.

`CN1C(=O)C(c2cn(C)c3ccccc23)=C(N2CCCC2)C1=O`: in the data set on HL-60, the IC50 worked out at 4700 nM.

For the compound `COc1ccccc1CNC1=C(c2cn(C)c3ccccc23)C(=O)N(C)C1=O`, in the data set on HL-60, the IC50 was 480 nM.

Regarding `CN1C(=O)C(N)=C(c2cn(C)c3ccccc23)C1=O`, in the data set with HL-60, the half-inhibitory concentration (IC50) was 4500 nM.

What is called solubility is how much of the substance goes into solution per volume. Low values mean little dissolved substance, high ones much dissolved substance. In data set [8], `CCCCCNC1=C(c2cn(C)c3ccccc23)C(=O)N(C)C1=O` yielded a solubility at 0.5 h of less than 0.001 mM.

As for `COc1ccc(CNC2=C(c3cn(C)c4ccccc34)C(=O)N(C)C2=O)cc1`, the IC50 in the data set with HL-60 amounted to 860 nM.

As to `CN1C(=O)C(NCC2CCCCC2)=C(c2cn(C)c3ccccc23)C1=O`, the IC50 with HL-60 was determined as 390 nM.

`CN1C(=O)C(NC(c2ccccc2)c2ccccc2)=C(c2cn(C)c3ccccc23)C1=O`: the concentration for half-maximal inhibition (IC50) in the data set with HL-60 turned out to be 1200 nM.

As for `CCCNC1=C(c2cn(C)c3ccccc23)C(=O)N(C(C)C)C1=O`, in the data set on HL-60, the IC50 worked out at 34 nM.

`CN(C)CCNC1=C(c2cn(C)c3ccccc23)C(=O)N(C)C1=O`: the IC50 in the data set with HL-60 amounted to 760 nM.

For the compound `CCCCCCCCCCCCCN1C(=O)C(NCCC)=C(c2cn(C)c3ccccc23)C1=O`, the IC50 in the data set with HL-60 was 400 nM.

The compound `CN1C(=O)C(NCCN)=C(c2cn(C)c3ccccc23)C1=O.Cl` came in with a solubility at 0.5 h in data set [8] of 71 mM.

On to `CN1C(=O)C(NC2CCCCC2)=C(c2cn(C)c3ccccc23)C1=O`, for which the IC50 in the data set with HL-60 is 1000 nM.

Turning to `CCCNC1=C(c2cn(C)c3ccccc23)C(=O)N(CC)C1=O`, the IC50 in the data set with HL-60 is 750 nM.

Take `CCCNC1=C(c2cn(C)c3ccccc23)C(=O)N(C(CC)CC)C1=O`: in the data set on HL-60, the IC50 stood at 480 nM.

Turning to `C[C@H](NC1=C(c2cn(C)c3ccccc23)C(=O)N(C)C1=O)c1ccccc1`, in the data set with HL-60, the IC50 is 510 nM.

For the compound `CN(C)CCCNC1=C(c2cn(C)c3ccccc23)C(=O)N(C)C1=O`, the 50% inhibitory concentration (IC50) in the data set with HL-60 was 610 nM.

Regarding `CCOC(=O)c1ccc(NC2CCCCC2)c(N)c1`, the inhibition entry in the data set on Neutrophil [9], in the data set on Neutrophil [10], with Neutrophil [12] and in the data set on Neutrophil [13] was “inactive” in each case. Also, the IC50 with NIH3T3 [4] came to 220 nM; in the data set on NIH3T3 [7] it was 270 nM. For the same compound, the inhibition entry in the data set with Neutrophil [11] is “Active”.

With `CCCNC1=C(c2cn(C)c3ccccc23)C(=O)N(C(c2ccccc2)(c2ccccc2)c2ccccc2)C1=O`, the IC50 in the data set on HL-60 amounted to 800 nM.

Turning to `CN1C(=O)C(NCc2ccccc2)=C(c2cn(C)c3ccccc23)C1=O`, the IC50 in the data set with HL-60 was 330 nM.

As for `CN1C(=O)C(NCc2ccccc2Cl)=C(c2cn(C)c3ccccc23)C1=O`, the IC50 with HL-60 was 1700 nM.

With `CN1C(=O)C(NC(C)(C)C)=C(c2cn(C)c3ccccc23)C1=O`, the IC50 with HL-60 is 880 nM.

On to `CN1C(=O)C(NCc2ccco2)=C(c2cn(C)c3ccccc23)C1=O`, for which the IC50 with HL-60 was found to be 710 nM.

Turning to `CCCNC1=C(c2cn(C)c3ccccc23)C(=O)N(Cc2ccccc2)C1=O`, the IC50 in the data set with HL-60 was determined as 450 nM.

Turning to `CC(=O)N[C@@H](CS)C(=O)O`, in the data set with Neutrophil [14], the inhibition entry was “inactive”.

Consider `CCCNC1=C(c2cn(C)c3ccccc23)C(=O)N(C2CCCC2)C1=O`, for which the IC50 with HL-60 is 280 nM.

On to `CN1C(=O)C(NCc2ccncc2)=C(c2cn(C)c3ccccc23)C1=O`, for which the half-maximal inhibitory concentration (IC50) in the data set on HL-60 was found to be 1200 nM.

On to `CCCNC1=C(c2cn(C)c3ccccc23)C(=O)N(CCC)C1=O`, for which the IC50 in the data set on HL-60 is 610 nM.

As to `COc1cccc(CNC2=C(c3cn(C)c4ccccc34)C(=O)N(C)C2=O)c1`, the IC50 in the data set on HL-60 worked out at 420 nM.

Regarding `CN1C(=O)C(NCc2cccc(Cl)c2)=C(c2cn(C)c3ccccc23)C1=O`, in the data set on HL-60, the IC50 was 280 nM.
